Experimental data taken from patent US20040219098A1, “Methods for the treatment of tumors” (priority 2003, published 2004).

Tests used:
JJ5 Breast Cancer cells [1] = test: Binding of EGF-111In-labeled transferrin composition to breast cancer cells (radioligand binding, kinetics, retention, internalization); set-up: species or system human; conditions: for binding / internalization by cancer cells (in words): JJ5 breast cancer cells
Source text: Breast cancer cells express up to 100-fold higher levels of EGFR than do normal epithelial tissues. EGFR expression in breast cancer bone metastasis biopsies ranged from 1-1300 fmol/mg membrane protein (approximately 400-1,000,000 receptors/cell) and was associated with high relapse rates and poor long term survival. Normal epithelial cells express <10^4 receptors/cell. For the normal breast cell line HBL-100, 8000 EGFR/cell has been reported. The expression of EGFR in breast cancer cell lines has a reported range of 800 EGFR/cell for MCF-7 cells to 10^6 EGFR/cell for MDA-MB-468 cells. […] Utilizing the Auger electron emitter In was used in the initial experiments to illustrate the utility of the invention using EGF-^111In-labeled transferrin compositions. The EGF-^111In-labeled transferrin (0.25-80 ng) was incubated with 1.5×10^6 cells/dish JJ5 Breast Cancer (prepared from BCBM JJ5) cells in 1 mL of 0.1% human serum albumin in 35 mm multiwell culture dishes at 37° C. for 30 minutes. The cells were transferred to a centrifuge tube and centrifuged. The cell pellet was separated from the supernatant and counted in a g-scintillation counter to determine bound (B) and free (F) radioactivity. Non-specific binding was determined by conducting the assay in 100 nM hEGF. The kinetics of binding was determined by incubating 1 ng of EGF-^111In-labeled transferrin composition with 3×10^6 JJ5 Breast Cancer cells at 37° C. and determining the proportion of radioactivity bound to the cells at various times up to 24 hours. Internalized fraction was measured by determining the proportion of radioactivity which could not be displaced from the cell surface by 100 nM hEGF. Cell-associated binding (surface-binding and intracellular accumulation) was expressed as a percentage of medium radioactivity bound per mg of cell study protein.
EGF-^111In-labeled transferrin composition was rapidly bound by the breast cancer cells and retained for at least 24 hours. Over a 24 hour period at 37° C., <8% was lost from the cells in vitro.

JJ5 Breast Cancer cells [2] = test: Growth inhibition assay against JJ5 breast cancer cells; assay type: cell-based, human; conditions: cultured 4 days
Experimental: JJ5 breast cancer cells (prepared from BCBM JJ5) expressing approximately 10^6 epidermal growth factor receptors/cell were incubated with EGF-^111In-labeled transferrin composition, unlabeled hEGF or ^111In-oxine, centrifuged to remove free ligand, then assayed and seeded (10^6 cells/dish) into 35 mm culture dishes. Growth medium was added and the cells were cultured at 37° C./5% CO^2 for 4 days. The cells were then recovered by trypsinization and counted in a hemocytometer. Control dishes contained cells cultured in growth medium containing ^111In-DTPA or growth medium alone.

JJ5 Breast Cancer cells [3] = test: Cytotoxicity (colony-forming) assay against JJ5 breast cancer cells; assay type: cell-based, human; conditions: 14 days
Experimental: JJ5 breast cancer cells were incubated with increasing amounts EGF-^111In-labeled transferrin composition or ^111In-oxine, centrifuged to remove free ligand, assayed and then seeded into 50 mm culture dishes. The number of cells seeded was varied from 3×10^4 to 3×10^6 cells to obtain approximately 400 viable colonies/dish taking into account the plating efficiency and the expected level of cytotoxicity. Control dishes contained JJ5 breast cancer cells which were incubated with normal saline. Growth medium was added and the cells were cultured at 37° C./5% CO^2 for 14 days. The growth medium was removed and the colonies were stained with methylene blue (1% in a 1:1 mixture of ethanol and water) then washed twice. The number of colonies per dish was counted using a manual colony counter (Manostat Corp). The plating efficiency was calculated by dividing the number of colonies observed by the number of cells seeded in each dish. The surviving fraction at increasing amounts of EGF-^111In-labeled transferrin composition or ^111In-oxine was calculated by dividing the plating efficiency for dishes containing treated cells with that observed for control dishes with normal saline.
Using a colony-forming assay, the radiotoxicity of internalization for JJ5 breast cancer cells was evaluated.

| Molecule | time retained by the breast cancer cells (JJ5 Breast Cancer cells [1]; 37° C., in vitro) | binding / internalization by cancer cells (in words) (JJ5 Breast Cancer cells [1]) | binding / internalization by cancer cells (in words) (JJ5 Breast Cancer cells [1]; listed as EGF-^111In-labeled transferrin compostions) | affinity constant for binding to JJ5 cells (JJ5 Breast Cancer cells [1]; association (affinity) constant, 37° C., 30 minutes, non-specific binding in 100 nM hEGF) [L/mol] | 111In radioactivity lost from the cells (JJ5 Breast Cancer cells [1]; over a 24 hour period at 37° C., in vitro) [%] | growth inhibition of the JJ5 cells compared to the medium control (JJ5 Breast Cancer cells [2]; 3.4 pCi/cell) [%] | reduction in cell survival (JJ5 Breast Cancer cells [3]; 8 pCi/cell) [%] | growth inhibition of the JJ5 cells compared to the medium control (JJ5 Breast Cancer cells [2]; 3.5 pCi/cell) [%] | cell killing (JJ5 Breast Cancer cells [3]; <6 pCi/cell) |
| --- | --- | --- | --- | --- | --- | --- | --- | --- | --- |
| EGF-^111In-labeled transferrin composition: human epidermal growth factor (EGF) operatively linked via linker-biotin/streptavidin to 111In-radiolabeled human transferrin | at least 24 hours | rapidly bound | rapidly internalized | 8e+08 | < 8 | 83 | 99 |  |  |
| [In+3].[O-]c1cccc2cccnc12.[O-]c1cccc2cccnc12.[O-]c1cccc2cccnc12 [^111In oxine, reference compound] |  |  |  |  |  |  |  | 91 | greater than 99% |
